Reference: US20200270576A1, “Ex Vivo Maintenance and Expansion of Stem Cells” (priority 2017, published 2020)

Tests used:
bone marrow cells = assay: TMI fluorescence (unfolded protein) in bone marrow cells from treated mice; format: in vivo; settings: bone marrow cells isolated from treated mice
Procedure: FIG. 6A-D depict the validation of tetraphenylethene maleimide (TMI) as a probe to measure unfolded protein. FIG. 6A depicts that TMI is a cell permeable dye that fluoresces upon binding to cysteine thiols. The free thiol side chains of non-disulphide bonded hydrophobic cysteines are typically buried within the core of globular proteins, but can be exposed in unfolded proteins. FIG. 6B depicts that TMI fluorescence was higher in bone marrow cells after a 4 hour incubation at 42° C. as compared to 37° C. Since heat shock induces protein unfolding, this validated TMI as a means to quantify unfolded protein. FIG. 6C depicts that TMI fluorescence in bone marrow cells was increased after treatment with the proteasome inhibitor bortezomib. […] FIG. 6B-D validated that TMI can be used to quantify unfolded protein (protein quality) in hematopoietic cells.
As a complement to evaluating protein quality by assessing changes in ubiquitylated protein, a quantitative orthogonal assay to measure protein quality was developed. Tetraphenylethene maleimide (TMI) is a cell permeable dye that fluoresces upon binding to cysteine thiols. […] We adapted TMI to quantify unfolded proteins within single hematopoietic cells by flow cytometry. We validated TMI by assessing the effect of heat shock, which induces protein unfolding, on TMI fluorescence in bone marrow cells. […]

Hsf1 = Hsf1 expression and localization by immunofluorescence in cultured HSCs; format: cell-based, mouse; settings: 10 days culture; 17-AAG 5 nM, HSF1A 8 uM final concentration
From the text: FIG. 14 depicts representative immunofluorescence staining of HSCs cultured for 10 days in the presence or absence of 17-AAG or HSF1A. Addition of 17-AAG or HSF1A to culture medium increased Hsf1 accumulation in the nucleus of cultured HSCs. Hsf1-deficient HSCs and cells stained without primary antibody (Neg Con) are shown as controls.
Since Hsf1 promoted HSC maintenance and protein homeostasis in vitro (FIG. 13), we investigated whether increasing Hsf1 expression or activity would further enhance HSC maintenance. […] Hsf1 can become active as a transcription factor when it translocates to the nucleus. We thus tested whether inhibitors of HSP90 or TRiC would promote Hsf1 accumulation in the nucleus of cultured HSCs by culturing HSCs for 10 days in the presence or absence of 17-AAG (HSP90 inhibitor; 5 nM final concentration) or HSF1A (TRiC inhibitor; 8 uM final concentration), and assessed Hsf1 expression and localization by immunofluorescence.

HSCs = assay: Competitive transplantation of HSCs cultured 10 days, with serial transplantation; format: cell-based, murine
From the text: FIG. 16A-B depict that HSC functionality is maintained and expanded in vitro by interventions that can induce/activate Hsf1. FIG. 16A depicts donor cell engraftment 16 weeks after transplantation of 10 HSCs cultured for 10 days in the presence or absence of an HSP90 inhibitor (17-AAG) or TRiC inhibitor (HSF1A) or from 10 freshly isolated HSCs. Cells were transplanted with 2×10^5 freshly isolated congenic bone marrow cells (n=3 independent experiments with 3-5 recipients/condition/experiment). […] Addition of either 17-AAG or HSF1A increased the reconstituting potential of cultured HSCs as compared to both control cultured and freshly isolated HSCs.
To test if HSCs depend on Hsf1 for their maintenance in vitro, we conditionally deleted Hsf1 from HSCs, cultured them for 10 days and assessed their long-term multilineage reconstituting activity in competitive transplantation assays. The assay for testing HSC function is to assess their capacity to give long-term (16+ week) multilineage (B cell, T cell and myeloid cell) reconstitution of the blood system of an irradiated transplant recipient. A competitive transplantation assay provides a quantitative readout of HSC regenerative activity.
Modest declines in proteostasis impair HSC maintenance in vivo. […] This raises the possibility that increasing Hsf1 activity could promote HSC maintenance in vitro by enhancing proteostasis capacity. To test if HSP90 inhibitors or TRiC inhibitors promote HSC maintenance in vitro, purified HSCs were sorted from young adult murine bone marrow (CD45.1^+) into 96-well plates (10/well) containing our HSC medium supplemented with 17-AAG or HSF1A. HSCs were cultured for 10 days and competitively transplanted with 2×10^5 freshly isolated congenic bone marrow cells (CD45.2^+) into irradiated mice (CD45.2^+). Recipient mice were bled monthly (for 4 months) to assess levels of donor-derived CD45.1^+ hematopoietic cells. Self-renewal capacity of HSCs was assessed by serially transplanting hematopoietic cells from the primary recipients into secondary irradiated recipients (3×10^6 cells/recipient). […] Similar results are expected for other HSP90 or TRiC inhibitors.
To test if HSP90 inhibitors or TRiC inhibitors enable HSC expansion in vitro, purified HSCs were sorted from young adult bone marrow (CD45.1^+) into 96-well plates (10/well) containing HSC medium supplemented with 17-AAG or HSF1A. HSCs were cultured for 10 days and competitively transplanted with 2×10^5 freshly isolated congenic bone marrow cells (CD45.2^+) into irradiated mice (CD45.2^+). At the same time, 10 freshly isolated HSCs were transplanted with 2×10^5 freshly isolated congenic bone marrow cells into irradiated mice. Recipient mice were bled monthly (for 4 months) to assess levels of donor-derived CD45.1^+ hematopoietic cells. Self-renewal capacity of HSCs was assessed by serially transplanting hematopoietic cells (3×10^6 cells/recipient) into secondary irradiated recipients. […] Similar results are expected for other HSP90 or TRiC inhibitors.

[1] = tested on: Hsf1-deficient and control HSCs; assay: Competitive transplantation of cultured wild-type and Hsf1-deficient HSCs; format: cell-based, mice; settings: 12 weeks after transplantation
From the text: FIG. 17 depicts that Hsf1 is required for 17-AAG and HSF1A to enhance HSC maintenance and expansion in vitro. Donor cell engraftment 12 weeks after transplantation of 10 wild-type and Hsf1-deficient HSCs cultured for 10 days in the presence or absence of 17-AAG, HSF1A or DMSO. Cells were transplanted with 2×10^5 freshly isolated congenic bone marrow cells (n=7-9; *P<0.05, **P<0.01).
We tested whether the positive effects of 17-AAG and HSF1A on HSC maintenance/expansion in vitro were mediated by Hsf1. Purified Hsf1-deficient and control HSCs were sorted from adult bone marrow (CD45.2^+) into 96-well plates (10/well) containing HSC medium supplemented with 17-AAG, HSF1A or vehicle (DMSO). HSCs were cultured for 10 days and competitively transplanted with 2×10^5 freshly isolated congenic bone marrow cells (CD45.1^+) into irradiated mice (CD45.1^+). Recipient mice were bled monthly to assess levels of donor-derived CD45.2^+ hematopoietic cells. […] However, the positive effect of 17-AAG and HSF1A was lost with Hsf1-deficient HSCs (FIG. 17).

[2] = tested on: primary bone marrow cells; assay: OPP incorporation (protein synthesis) by flow cytometry; format: cell-based, mouse; settings: pre-treatment with translation inhibitor; primary bone marrow cells in culture
Procedure: FIG. 1A-D depict quantification of protein synthesis in hematopoietic cells. FIG. 1A depicts how 0-propargyl-puromycin (OPP) was used to quantify protein synthesis within cells. OPP is a puromycin analog with a terminal alkyne group that mimics an aminoacyl-tRNA and integrates into nascent polypeptides. Azide-alkyne cycloaddition can covalently link a fluorescently tagged azide molecule to OPP that has been incorporated into new peptides. FIG. 1B depicts that when OPP was added to cell culture medium, its incorporation in primary bone marrow cells was detected and quantified by flow cytometry. […] FIG. 1C depicts OPP incorporation in CD150^+CD48^−Lineage^−Sca1^+ckit^+ (CD150^+CD48^−LSK) HSCs and unfractionated bone marrow cells one hour after administration in vivo. FIG. 1D depicts OPP incorporation (protein synthesis rates) in HSCs, multipotent progenitors (MPP), common myeloid progenitors (CMP), granulocyte macrophage progenitors (GMP), granulocytes (GR) megakaryocyte erythroid progenitors (MEP), CD71^+Ter119^+ erythroid progenitors (E), pro-B, pre-B, IgM^+ B cells (IgM), CD3^+ T cells (T), and unfractionated bone marrow cells (BM). […] Statistical significance relative to HSCs was assessed using a repeated-measures one way ANOVA followed by Dunnett's test (n=9; **P<0.01, ***P<0.001).

CD48-LSK HSCs/MPPs = assay: Western blot of ubiquitylated protein in cultured HSCs; format: cell-based, mouse; settings: added to culture medium; HSCs 4 and 18 hours in vitro
Procedure: FIG. 10A-C depicts increased protein synthesis and reduced protein quality within HSCs in vitro. FIG. 10A depicts relative protein synthesis rates of HSCs normalized to bone marrow cells in vivo (n=6) and after 4 hours in vitro (n=5). Statistical significance was assessed with a two-tailed Student's t-test (***P<0.001). FIGS. 10B and 10C depict western blots that examined ubiquitylated protein levels in freshly isolated or cultured CD48^−LSK HSCs/MPPs. […] The accumulation of ubiquitylated protein was prevented by addition of the translation inhibitor cycloheximide (CHX) to culture medium.
The accumulation of ubiquitylated protein could be blocked by adding the translation inhibitor cycloheximide to the culture medium (FIG. 10B, 10C).

CC(C)C[C@H](NC(=O)[C@H](Cc1ccccc1)NC(=O)c1cnccn1)B(O)O [Bortezomib]
increase in TMI fluorescence as compared to cells from vehicle treated controls (bone marrow cells): ~30%

CCc1ccc(S(=O)(=O)Nc2cc(-c3cccs3)nn2-c2ccccc2)cc1 [HSF1A]
Hsf1 abundance in the nucleus of cultured HSCs (Hsf1): increase Hsf1 abundance in the nucleus
donor cell reconstitution vs recipients of freshly isolated HSCs (HSCs; 10 HSCs cultured 10 days vs 10 freshly isolated HSCs): higher levels of donor cell reconstitution as compared to recipients of freshly isolated HSCs
donor cell reconstitution in primary recipients vs HSCs cultured without agent (HSCs; 10 HSCs cultured 10 days, with 2x10^5 congenic bone marrow cells, 16 weeks): significantly higher levels of donor cell reconstitution as compared to controls
fraction of recipients with long-term multilineage reconstitution vs HSCs cultured without agent (HSCs; primary and secondary transplants, 16 week, >0.5% B-, T-, myeloid cells): greater fraction
fraction of recipients with long-term multilineage reconstitution vs freshly isolated HSCs (HSCs; secondary transplants): significantly greater fraction
donor cell reconstitution in secondary recipients vs HSCs cultured without agent (HSCs; serial transplant, 3x10^6 cells/recipient): even more pronounced
donor cell reconstitution vs controls (DMSO), control HSCs ([1]; 10 HSCs cultured 10 days): higher levels of donor cell reconstitution as compared to controls
positive effect on donor cell reconstitution with Hsf1-deficient HSCs ([1]; Hsf1-deficient HSCs cultured 10 days): lost

C[C@@H]1C[C@@H]([C@H](O)CC2CC(=O)NC(=O)C2)C(=O)[C@@H](C)C1 [cycloheximide]
incorporation of OPP (new protein synthesis) [2]: inhibited
accumulation of ubiquitylated protein (CD48-LSK HSCs/MPPs): blocked
